According to US8088752B2, “Methods for metabolic modulation” (VDF FutureCeuticals, Inc., priority 2003, dated 2012):
“Also recorded” adds a separate entry of the source.

Experiments:
activated Akt = test: Level of activated Akt in muscle cells, Western immunoblotting; type: cell-based, mouse; conditions: for FOLD AKT ACTIVATION (OVER CONTROL): 30 minutes; for Akt activity (in words): summary of Table 2
Protocol: (§1) In Vitro Effect of Selected Compounds on Glut-4, activated AMPK, and activated Akt The levels of Glut-4, activated AMPK and activated Akt were measured in mouse muscle cells C2C12 (from ATTC) and in primary culture of human skeletal muscle cells (Clonetics, Inc.) using Western immunoblotting. C2C12 cells were plated at […] cells per mL/well (12-well plate) in standard cell culture medium (DMEM supplemented with 10% fetal bovine serum (FBS), 25 mM glucose, 20 mM Hepes, 4 mM glutamine and 2 mM sodium pyruvate. 48 hrs after the plating, medium was changed to differentiation medium (DMEM supplemented with 5 mM of glucose and 0.5% of FBS) for next 3-4 days to stimulate the formation of myotubes. Three hrs before the treatment with selected agents, cells were washed with PBS and transferred to PBS supplemented with 5 mM of glucose.
(§2) Human skeletal muscle cells (HSKM) were cultured in SKBM-2 mediums provided by Clonetics. 48 hrs after cell plating, medium was changed to SKBM medium to stimulate differentiation of the cells to myotubes. When differentiated, the myotubes were transferred to PBS supplemented with 5 mM glucose for three hrs before the treatment.
(§3) Analysis of C2C12 cells for the level of activated AMPK, Akt and the level of GLUT-4 was performed in the same experimental system. The cells were treated for 30 minutes at 37° C. […] Subsequently, 20 μg per sample of sample protein was used for Western analysis using NuPage 10% Bis/Tris gels (Invitrogen). After exposure of membranes to primary and secondary antibodies AMPK, AKT or Glut-4 was detected using ECL-Plus (Amersham) following producer's instruction. Chemilumiscent signals were detected by using ChemiDoc system from Biorad. Intensity of detected signals were analyzed and measured using Quantity One software (Biorad). Alternatively, the level of phosphorylated AMPK was detected using ECL kit from Amersham and short exposure to Kodak films.
(§4) Experimental setup: Cell Culture was followed by treatment with selected contemplated compounds, which was followed by cell lysis and western blot analysis for AMPK, Akt, GLUT4, total AMPK, and total Akt. Signals were acquired accordingly.

activated AMPK = test: Level of activated AMPK in muscle cells, Western immunoblotting; type: cell-based, mouse; conditions: for AMPK activity (in words): summary of Table 1
Protocol: as §1, §2, §3, §4

[1] = Serum level of DHZ in mice after oral or i.p. administration (ELISA); type: in vivo, mouse; conditions: C57/B1 mice, 100 microgram/dose
Protocol: C57/B1 mice were treated with 100 microgram/dose of dihydrozeatin (DHZ) for 0, 15, 30, 60 and 120 minutes following oral or i.p. administration. Serum level of DHZ in pg/ml was measured using DHZ Elisa following procedures as enclosed in a commercially available test kit (e.g., dihydrozeatin competitive ELISA test system for plant growth hormone detection, Agdia, Elkhard, Ind.). Three animals were used per experimental point.

GLUT-4 = GLUT-4 protein level in C2C12 cells, Western immunoblotting; type: cell-based, mouse; conditions: summary of Table 3
Protocol: as §1
Analysis of C2C12 cells for the level of activated AMPK, Akt and the level of GLUT-4 was performed in the same experimental system. The cells were treated for 30 minutes at 37° C. […] After exposure of membranes to primary and secondary antibodies AMPK, AKT or Glut-4 was detected using ECL-Plus (Amersham) following producer's instruction. Chemilumiscent signals were detected by using ChemiDoc system from Biorad. Intensity of detected signals were analyzed and measured using Quantity One software (Biorad). Alternatively, the level of phosphorylated AMPK was detected using ECL kit from Amersham and short exposure to Kodak films. […]

muscle cells = test: In vitro myocyte total glucose uptake, fluorescent glucose analog; type: cell-based; conditions: summary of Table 4
Protocol: Total glucose uptake was measured using fluorescent glucose analog from Molecular Probes. Briefly, muscle cells were treated with kinetin, N^2-Acetyl-Guanosine and N^2-Acetyl-Guanine for 30 minutes at 37 C first and subsequently, these cells were exposed to 500 μM of fluorescent glucose analog for 5 minutes at room temperature. Next, cells were washed twice with cold Krebs-Hepes buffered solution and fixed in 70% ethanol in water. Fluorescence of fluorescent glucose in the cells was measured using fluorescent plate reader at 480/530 nm (excitation/emission). […] Table 4 refers to multiple independent experiments where multiple identical concentrations for the same reagents are indicated.

In the case of `NC(=O)c1ncn([C@@H]2O[C@H](CO)[C@@H](O)[C@H]2O)c1N` [AICAR, 4-Amino-5-imidazolecarboxamide riboside, reference compound], the “FOLD AKT ACTIVATION (OVER CONTROL)” value (activated Akt; 50.0 microM) is reported as 2.20 fold.

For `c1ccc(CNc2ncnc3nc[nH]c23)cc1` [Benzyl-Adenine], the “FOLD AMPK ACTIVATION (OVER CONTROL)” value (activated AMPK; 5.0 microM, 30 minutes) was 2.70 fold.

For `CC(CO)CCNc1ncnc2nc[nH]c12` (stereo not drawn) [Dihydro-Zeatin, dihydrozeatin], the “time over which significant serum concentrations can be maintained” value [1] was “at least 120 minutes” and the “oral bioavailability (in words)” value ([1]; oral) was “readily bioavailable from the oral route”.

In the case of `CC(C)=CCNc1ncnc2nc[nH]c12` [Gamma, Gamma-Dimethylally-6-Aminopurine], the “FOLD AKT ACTIVATION (OVER CONTROL)” value (activated Akt; 0.8 microM) is reported as 1.90 fold.

With `Nc1nc2c(ncn2[C@@H]2O[C@H](CO)[C@@H](O)[C@H]2O)c(=O)[nH]1` [Guanosine] the “AMPK activity (in words)” value (activated AMPK) was “potent activators of AMPK as well as Akt” and the “Akt activity (in words)” value (activated Akt) was “potent activators of AMPK as well as Akt”.

With `c1coc(CNc2ncnc3[nH]cnc23)c1` [Kinetin, kinetin] the “GLUT-4 protein level (in words)” value (GLUT-4) was “potently increase GLUT-4 protein level”, the “glucose uptake in muscle cells in vitro (in words)” value (“glucose uptake in muscle cells” below) (muscle cells) was “potently enhance glucose uptake” and the “AMPK activity (in words)” value (activated AMPK) was “more potent compounds”.

In the case of `CN(C)C(=N)N=C(N)N` [Metformin, reference compound], the “FOLD AKT ACTIVATION (OVER CONTROL)” value (activated Akt; 20.0 milliM) is reported as 2.32 fold.

For `CC(=O)Nc1nc2nc[nH]c2c(=O)[nH]1` [N^2-Acetyl-Guanine, N2-acetylguanine], the “GLUT-4 protein level (in words)” value (GLUT-4) was “potently increase GLUT-4 protein level”, the “glucose uptake in muscle cells” value (muscle cells) was “potently enhance glucose uptake” and the “AMPK activity (in words)” value (activated AMPK) was “potent activators of AMPK as well as Akt”. The “Akt activity (in words)” value (activated Akt) was “potent activators of AMPK as well as Akt”.

With `CC(=O)Nc1nc2c(ncn2[C@@H]2O[C@H](CO)[C@@H](O)[C@H]2O)c(=O)[nH]1` [N^2-Acetyl-Guanosine] the “GLUT-4 protein level (in words)” value (GLUT-4) was “potently increase GLUT-4 protein level”, the “glucose uptake in muscle cells” value (muscle cells) was “potently enhance glucose uptake” and the “AMPK activity (in words)” value (activated AMPK) was “potent activators of AMPK as well as Akt”. The “Akt activity (in words)” value (activated Akt) was “potent activators of AMPK as well as Akt”.

With `C/C(=C\CNc1ncnc2nc[nH]c12)CO` [Trans-Zeatin] the “FOLD AKT ACTIVATION (OVER CONTROL)” value (activated Akt; 1.0 microM) was 0.90 fold and the “FOLD AKT ACTIVATION (OVER CONTROL)” value (activated Akt; 10.0 microM) was 0.86 fold.

With `C/C(=C\CNc1ncnc2[nH]cnc12)CO` [Zeatin] the “AMPK activity (in words)” value (activated AMPK) was “more potent compounds; also recorded: potent stimulator of AMPK”, the “FOLD AKT ACTIVATION (OVER CONTROL)” value (activated Akt; 1.0 microM) was 0.95 fold and the “Akt activity (in words)” value (activated Akt) was “not Akt”.

In the case of “Insulin: Insulin, comparator in the Akt activation test”, the “FOLD AKT ACTIVATION (OVER CONTROL)” value (activated Akt; 0.10 nanoM) is reported as 1.75 fold, the “FOLD AKT ACTIVATION (OVER CONTROL)” value (activated Akt; 25.0 nanoM) is reported as 3.40 fold and the “FOLD AKT ACTIVATION (OVER CONTROL)” value (activated Akt; 50.0 nanoM) is reported as 3.28 fold.
